In patent US8012983B2, “Substituted triazolopyrazines useful for the treatment of degenerative and inflammatory diseases” (Galapagos NV, priority 2008, dated 2011):

Test system: MMP13 expression in SW1353 chondrosarcoma cell line
Experiment: MMP13 assay: IL-1/OSM-driven MMP13 expression in SW1353 cells (MMP13 ELISA)
Format: cell-based
Settings: Homo sapiens, IL-1β and OSM, 48 hr
Procedure: The protocol of the MMP13 ELISA is described in section 4.1, then testing of compounds on release of IL-1/OSM-driven MMP13 expression in SW1353 chondrosarcoma cell line is described in section 4.2.
A 384 well format ELISA for measurement of MMP13 was developed. Various primary antibodies were tested, as well as various ELISA protocols. The following protocol is developed and validated to measure MMP13 levels in supernatant of cell cultures in 384 well plates.
Black maxisorb 384 well plates (Nunc 460518) are coated with 35 μl of a buffered solution containing 1.5 μg/mL anti-MMP13 antibody MAB511 (R&D systems). The antibody is diluted in carbonate-bicarbonate coating buffer (1.59 g Na2CO3 (Sigma S-7795) and 2.93 g NaHCO3 (Sigma S-5761) in 1 L MilliQ water, adjusted to pH 9.6). After overnight incubation at 4° C., wells are washed twice with 100 μL PBST (80 g NaCl, 2 g KCl (Sigma), 11.5 g Na2HPO4.7H2O and 2 g KH2PO4 in 10 L milliQ water; pH 7.4+0.05% Tween-20 (Sigma)) and blocked with 100 μL/well blocking buffer (5% non fat dry milk in PBS). After overnight incubation at 4° C., wells are washed twice with 100 μL PBST. The PBST is removed and 35 μL of sample is transferred to the ELISA plates. After 4 hr incubation at RT, plates are washed twice with PBST and incubated for 1 hr at 37° C. with 35 μL/well 1.5 mM APMA solution (a 10 mM APMA stock solution is prepared one day before (35.18 mg APMA (Sigma A-9563) in 10 mL 0.1M NaOH (Merck 1.06469.1000) and stored at 4° C. Before use, the 10 mM APMA stock solution is diluted to 1.5 mM in 1×APMA buffer (10× APMA buffer: 500 mM Tris (Roche 708976), 50 mM CaCl2 (Sigma C-5080), […] ZnCl2 (Sigma Z-0173), 1.5 M NaCl (Calbiochem 567441), 0.5% Brij35 (Sigma 430 AG-6) and adjust to pH 7.0). After activation of MMP13 by APMA, plates are washed again two times with 100 μL PBST/well and 35 μL of substrate solution is added to each well. Substrate solution is prepared as follows: OmniMMP Fluorescent substrate (Biomol P-126) stock solution (2 mM in DMSO, stored at −20° C.) is diluted in 1× OmniMMP buffer (10× OmniMMP buffer: 500 mM Hepes (Sigma H4034), 100 mM CaCl2 (Sigma C5080), 0.5% Brij35 (Sigma 430 AG-6; adjusted to pH 7.0) to a final concentration of 0.01 mM. After an overnight incubation at 37° C., the active MMP13 in the sample has cleaved the substrate and released fluorescence. Readout is performed on the EnVision (Perkin Elmer) using 320 nm excitation/405 nm emission filters.
Human chondrosarcoma cell line SW1353 was acquired from ATCC and grown in DMEM supplemented with 10% heat-inactivated FBS and 1× penicillin/streptomycin (Invitrogen) in a humidified 5% CO2 incubator at 37° C. Aliquots of the cells were frozen and cryopreserved in liquid nitrogen. Starting from a cryopreserved aliquot, cells are further grown by sub-culturing at a 1/5-1/8 ratio twice a week by trypsinisation.
Starting from the compound master stocks (all at 10 mM concentration in 100% DMSO) a 3-fold serial dilution is made in 96-well plates in 100% DMSO. Then, plates are futher diluted 50-fold in M199 medium supplemented with 1% heat-inactivated FBS to obtain an intermediate work stock.
At day 1, SW1353 cells are seeded in 96-well plates (flat bottom, tissue culture treated, Greiner) at a density of 15000 cells/well in 120 μL growth medium. The next day, 15 μL compound out of the intermediate work stock is added. After an incubation period of 60 minutes, which allows the compounds to equilibrate and enter the cells, cells are stimulated with a mixture of IL-1β and OSM, added in a volume of 15 μL to obtain final concentrations of 1 ng/ml IL-1β and 25 ng/ml OSM. For that, stocks of IL-1 (10 μg/ml) and OSM (25 μg/ml) (both PeproTech) were diluted to 10 ng/ml and 250 ng/ml respectively, in M199 medium supplemented with 1% FBS. After incubation for 48 hr, the cell supernatant was harvested and an appropriate dilution was processed in the MMP13 ELISA as described above, delivering raw data (RFU: relative fluorescence units). […]

SMILES | IC50
CC(C)(C)N1C[C@@H]2C[C@H]1CN2c1ccc(Nc2ncc(-c3coc(C(N)=O)c3)n3ccnc23)cc1 [Compound 6] | > 1000 nM
CC(C)N1C[C@@H]2C[C@H]1CN2c1ccc(Nc2ncc(-c3coc(C(N)=O)c3)n3ncnc23)cc1 [Compound 2, 4-{8-[4-((1S,4S)-5-Isopropyl-2,5-diaza-bicyclo[2.2.1]hept-2-yl)-phenylamino]-[1,2,4]triazolo[1,5-a]pyrazin-5-yl}-furan-2-carboxamide] | 1 to 500 nM
